Source: US12551474B2, “Use of pridopidine for the treatment of fragile X syndrome” (PRILENIA NEUROTHERAPEUTICS LTD., priority 2017, dated 2026)
Read-outs that look alike come from different tables or passages of the source.

Legend:
[1] = test system: FXS neurons; experiment: neurite outgrowth in FXS neurons with genetic or pharmacological inactivation of S1R; assay type: cell-based, human
From the text: To investigate whether the rescue of neurite outgrowth deficits in FXS neurons following pridopidine treatment is mediated via sigma-1 receptor (S1R), virally-delivered Cas9 was used to target and inactivate S1R in FXS NPC prior to neuronal differentiation. Effective inactivation of S1R gene and loss of its protein product was confirmed by western blot (FIG. 6A).
The effect of a pharmacological inhibitor of S1R on pridopidine-mediated neurite outgrowth improvements in FXS neurons was further tested.

[2] = test system: human patients afflicted with FXS; conditions: periodic (daily or twice daily) oral administration, pediatric or adult patients
[3] = test system: rat striatum; conditions: transcriptomic analysis; cited from earlier work
[4] = test system: neuroblastoma cell line; conditions: S1R-dependent; cited from earlier work
[5] = test system: human patients afflicted with a FXS related disorder; conditions: periodic (daily or twice daily) oral administration, pediatric or adult patients
Method: The human patients are pediatric patients or adult patients.
A pridopidine composition as described herein is administered orally to a subject suffering from a FXS related disorder.

[6] = test system: human FXS neurons; conditions: 8-day period, vs DMSO
From the text: Control cells used were a human Embryonic Stem (ES) cell line.
FIG. 2A upper panels show MAP2/Tuj-1/DNA immunostaining; lower panels show GABA/NeuN/DNA immunostaining.
Neurite growth is a surrogate of neuronal development and maturation.
Open squares show data from DMSO treated FXS neurons.

[7] = test system: Q175 knock-in (Q175 KI) HD mouse model; conditions: cited from earlier work

Row | SMILES | neurite outgrowth in FXS neurons ([1]; 100 nM pridopidine for 24 hrs) | improvement in neurite outgrowth in FXS neurons in which S1R was inactivated (S1RKO) ([1]; 100 nM pridopidine for 24 hrs, S1RKO (Cas9)) | treatment of FXS [2] | expression of BDNF, D1R, GR and Akt/PI3K pathways [3] | secretion of BDNF [4] | treatment of a FXS related disorder [5] | neurite growth in FXS neurons ([6]; 1 uM pridopidine) | neurite growth in FXS neurons ([6]; 5 uM pridopidine) | gene expression profile versus HD disease gene expression profile [7] | effect on pridopidine-mediated neurite outgrowth improvement in FXS neurons ([1]; co-administration of NE-100 (1 μM) with pridopidine)
1 | CCCN1CCC(c2cccc(S(C)(=O)=O)c2)CC1 [pridopidine, 4-[3-(methylsulfonyl)phenyl]-1-propyl-piperidine] | improvement in neurite outgrowth | abolished | effective | activates expression | enhances secretion | effective | significant improvement in neurite growth | significant improvement in neurite growth | reversed pattern | –
2 | CCCN(CCC)CCc1ccc(OC)c(OCCc2ccccc2)c1 [NE-100, reference compound] | – | – | – | – | – | – | – | – | – | blocked the effect of pridopidine
